Earlier results as cited in US20210205766A1, “METHODS AND RELATED APPARATUS FOR PROVIDING A PROCESSING SOLUTION FOR A FOOD PROCESSING APPLICATION” (Zee Company, Inc., priority 2016, published 2021).

Details: about half active (free), about half dissociated (bound) at pH of about 8.4

peroxyacetic acid [PAA]
pKA: about 8.4
